Source: patent publication US11873521B2, “Steviol glycoside and production method therefor, and sweetener composition containing same” (SUNTORY HOLDINGS LIMITED, priority 2017, dated 2024)
Entries after “also recorded” stand apart in the source; their conditions may differ.

Key:
[1] = background art; cited from earlier work
[2] = samples adjusted to final Brix of 2 in terms of sucrose; cited from earlier work
Solubility in water = type: physicochemical
[3] = Evaluation of flavors of novel steviol glycosides in powder forms; type: in vivo; conditions: only β-form
Procedure: Flavors of Novel steviol glycosides 1 and 2 in powder forms were evaluated. Specifically, Compounds 15 (corresponding to Novel steviol glycoside 1) and 17 (corresponding to Novel steviol glycoside 2) obtained by chemical syntheses were subjected to high performance liquid chromatography (HPLC) to isolate only the β-form, which was made into a powder form and subjected to flavor evaluation. Panelists trained about sensory attributes of sweeteners members: Suntory Beverage and Food Ltd.) evaluated.

Q: For `C=C1C[C@@]23CC[C@H]4[C@@](C)(CCC[C@@]4(C)C(=O)O[C@@H]4O[C@H](CO)[C@@H](O)[C@H](O)[C@H]4O)[C@@H]2CC[C@]1(O[C@@H]1O[C@H](CO)[C@@H](O)[C@H](O)[C@H]1O[C@@H]1O[C@H](CO)[C@@H](O)[C@H](O)[C@H]1O)C3` [Stevioside], which “sweetness relative to sugar” value [1] is on record?
A: 250-300 times the sweetness of sugar

Q: What does the source list for `C=C1C[C@@]23CC[C@H]4[C@@](C)(CCC[C@@]4(C)C(=O)O[C@@H]4O[C@H](CO)[C@@H](O)[C@H](O)[C@H]4O)[C@@H]2CC[C@]1(O[C@@H]1O[C@H](CO)[C@@H](O)[C@H](O[C@@H]2O[C@H](CO)[C@@H](O)[C@H](O)[C@H]2O)[C@H]1O[C@@H]1O[C@H](CO)[C@@H](O)[C@H](O)[C@H]1O)C3` [Reb.A, rebaudioside A]?
A: sweetness relative to sugar [1]: 350-450 times the sweetness of sugar; sweetness level assumed for preparing beverage samples [2]: 300

Q: Which “sweetness level assumed for preparing beverage samples” value [2] does the source give for `C=C1C[C@@]23CC[C@H]4[C@@](C)(CCC[C@@]4(C)C(=O)O[C@@H]4O[C@H](CO)[C@@H](O)[C@H](O)[C@H]4O[C@@H]4O[C@H](CO)[C@@H](O)[C@H](O)[C@H]4O)[C@@H]2CC[C@]1(O[C@@H]1O[C@H](CO)[C@@H](O)[C@H](O[C@@H]2O[C@H](CO)[C@@H](O)[C@H](O)[C@H]2O)[C@H]1O[C@@H]1O[C@H](CO)[C@@H](O)[C@H](O)[C@H]1O)C3` [Reb.D, rebaudioside D] here?
A: 250

Q: With `C=C1C[C@@]23CCC4[C@](C)(C(=O)O[C@@H]5OC(CO)[C@@H](O)[C@H](O)C5O[C@@H]5OC(C)[C@H](O)[C@H](O)C5O)CCC[C@@]4(C)[C@@H]2CCC1(O[C@@H]1OC(CO)[C@@H](O)[C@H](O[C@@H]2OC(CO)[C@@H](O)[C@H](O)C2O)C1O[C@@H]1OC(C)[C@H](O)[C@H](O)C1O)C3` (some centres unmarked) [Compound 15] as the compound, how does the solubility in water (Solubility in water) read?
A: did not dissolve in water sufficiently

Q: What about the “undesirable flavor such as bitterness” value [3] of the same compound?
A: less undesirable flavor such as bitterness

Q: And the Presence of sweetness ([3]; listed as Novel steviol glycoside 1)?
A: had sweetness; also recorded: Present

Q: Which “undesirable flavor such as bitterness” value [3] does the source give for `C=C1C[C@@]23CCC4[C@](C)(C(=O)O[C@@H]5OC(CO)[C@@H](O)[C@H](O[C@@H]6OC(CO)[C@@H](O)[C@H](O)C6O)C5O[C@@H]5OC(C)[C@H](O)[C@H](O)C5O)CCC[C@@]4(C)[C@@H]2CCC1(O[C@@H]1OC(CO)[C@@H](O)[C@H](O[C@@H]2OC(CO)[C@@H](O)[C@H](O)C2O)C1O[C@@H]1OC(C)[C@H](O)[C@H](O)C1O)C3` (some centres unmarked) [Compound 17] here?
A: less undesirable flavor such as bitterness

Q: What about the Presence of sweetness ([3]; listed as Novel steviol glycoside 2) of the same compound?
A: had sweetness; also recorded: Present

Q: What about the Flavor characteristics ([3]; listed as Novel steviol glycoside 2, bitterness) of the same compound?
A: No bitterness

Q: What about the Flavor characteristics ([3]; listed as Novel steviol glycoside 2, overall flavor) of the same compound?
A: Flavor resembled the mixture
